Where only a bound is given, the exact number is not on record here.

We go through 42 molecules from US20170320870A1 (Medical Research Council Technology, priority 2009, published 2017).

In this experiment the target is T1, LRRK2 wild type (recombinant human, catalytic domain amino acids 970-2527, GST-tagged) (Homo sapiens, UniProt Q5S007).
T1 construct: The wild type used was recombinant human, catalytic domain (amino acids 970-2527) GST-tagged, expressed in insect cells; GST; purchased Invitrogen Corporation PV4873; host or cells: insect cells
T1 sequence (Q5S007 970-2527): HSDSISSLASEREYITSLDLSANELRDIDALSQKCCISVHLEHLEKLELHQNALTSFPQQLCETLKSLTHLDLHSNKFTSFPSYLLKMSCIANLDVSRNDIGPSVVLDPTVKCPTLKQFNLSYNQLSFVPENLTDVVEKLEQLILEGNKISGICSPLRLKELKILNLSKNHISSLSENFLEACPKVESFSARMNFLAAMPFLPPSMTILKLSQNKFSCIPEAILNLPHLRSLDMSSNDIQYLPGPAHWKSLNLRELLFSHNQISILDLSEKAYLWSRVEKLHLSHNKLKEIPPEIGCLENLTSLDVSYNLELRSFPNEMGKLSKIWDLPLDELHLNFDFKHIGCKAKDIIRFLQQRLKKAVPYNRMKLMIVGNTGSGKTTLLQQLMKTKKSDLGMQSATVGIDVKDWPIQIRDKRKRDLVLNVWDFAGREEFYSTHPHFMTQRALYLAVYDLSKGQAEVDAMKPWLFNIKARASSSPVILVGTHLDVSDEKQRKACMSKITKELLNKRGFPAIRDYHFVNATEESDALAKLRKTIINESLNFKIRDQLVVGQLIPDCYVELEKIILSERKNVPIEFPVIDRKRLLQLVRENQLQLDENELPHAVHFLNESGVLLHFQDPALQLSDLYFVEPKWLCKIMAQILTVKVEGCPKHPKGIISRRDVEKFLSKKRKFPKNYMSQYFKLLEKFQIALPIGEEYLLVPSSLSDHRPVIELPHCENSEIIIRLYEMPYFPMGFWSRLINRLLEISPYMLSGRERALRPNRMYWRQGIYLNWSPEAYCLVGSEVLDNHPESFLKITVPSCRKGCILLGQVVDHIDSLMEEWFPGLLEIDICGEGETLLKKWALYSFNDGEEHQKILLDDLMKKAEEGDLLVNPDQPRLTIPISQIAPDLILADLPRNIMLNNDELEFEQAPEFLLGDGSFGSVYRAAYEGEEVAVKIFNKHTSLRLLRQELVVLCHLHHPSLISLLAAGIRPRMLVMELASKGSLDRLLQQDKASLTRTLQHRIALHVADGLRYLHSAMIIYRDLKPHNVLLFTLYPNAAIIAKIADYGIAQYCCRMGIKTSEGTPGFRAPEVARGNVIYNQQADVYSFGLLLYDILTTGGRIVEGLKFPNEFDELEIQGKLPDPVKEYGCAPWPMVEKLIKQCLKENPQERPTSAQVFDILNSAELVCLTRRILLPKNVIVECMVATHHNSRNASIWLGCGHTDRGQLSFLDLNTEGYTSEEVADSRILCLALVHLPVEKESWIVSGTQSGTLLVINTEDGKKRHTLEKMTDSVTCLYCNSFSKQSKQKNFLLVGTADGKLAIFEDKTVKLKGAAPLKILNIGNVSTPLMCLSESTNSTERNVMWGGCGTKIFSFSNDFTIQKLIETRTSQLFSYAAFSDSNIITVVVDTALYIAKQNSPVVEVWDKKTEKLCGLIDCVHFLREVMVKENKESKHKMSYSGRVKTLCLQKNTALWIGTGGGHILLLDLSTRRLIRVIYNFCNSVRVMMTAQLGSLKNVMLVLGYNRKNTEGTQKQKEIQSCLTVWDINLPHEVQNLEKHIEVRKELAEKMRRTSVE
Kind of experiment: LRRK2 wild type protein kinase assay ([γ-33P] ATP, peptide substrate […]), IC50. The note with it: LRRK2 (variant not given); read-out: Potency score, LRRK2 IC50. In kind it is biochemical. In outline: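 IC50 derived from duplicate 10-point titrations, with 33P incorporation into a 100 μM peptide counted after P81 filter capture. Roughly 5 nM unactivated kinase reacted with Mg/[γ-33P]ATP for 180 min at room temperature (~21 °C), pH 7.5 Tris buffer containing 10 mM MgCl2, EGTA and DTT; acid-quenched.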
`Cc1n[nH]c2ccnc(Oc3ccc(-n4ccnc4)cc3)c12` [Example 120, 4-(4-Imidazol-1-yl-phenoxy)-3-methyl-1H-pyrazolo[4,3-c]pyridine]: the IC50 is 100 to 1000 nM.

As for `Cc1n[nH]c2ccnc(Nc3ccc4ncsc4c3)c12` [Example 313, Benzothiazol-6-yl-(3-methyl-1H-pyrazolo[4,3-c]pyridin-4-yl)-amine], the IC50 fell in the range of 100 to 1000 nM.

On to `Cc1n[nH]c2ccnc(Nc3ccc4nccnc4c3)c12` [Example 352, (3-Methyl-1H-pyrazolo[4,3-c]pyridin-4-yl)-quinoxalin-6-yl-amine], for which the IC50 fell in the range of 1000 to 10000 nM.

Consider `O=C(CCc1n[nH]c2ccnc(NC3CCCCC3)c12)N1CCC(c2ccccc2)C1` (stereo not drawn) [Example 206, 3-(4-Cyclohexylamino-1H-pyrazolo[4,3-c]pyridin-3-yl)-1-(3-phenyl-pyrrolidin-1-yl)-propan-1-one], for which the IC50 was below 100 nM.

For `Cc1n[nH]c2ccnc(-c3cccc(NS(C)(=O)=O)c3)c12` [Example 52, N-[3-(3-Methyl-1H-pyrazolo[4,3-c]pyridin-4-yl)-phenyl]-methane-sulfonamide], the IC50 was in the range of 1000 to 10000 nM.

For the molecule `Cc1ccccc1Nc1nccc2[nH]nc(C)c12` [Example 320, (2-Methyl-phenyl)-(3-methyl-1H-pyrazolo[4,3-c]pyridin-4-yl)-amine], the IC50 lay in the range of 100 to 1000 nM.

For the molecule `Cc1n[nH]c2ccnc(-c3ccccc3F)c12` [Example 49, 4-(2-Fluoro-phenyl)-3-methyl-1H-pyrazolo[4,3-c]pyridine], the IC50 was 100 to 1000 nM.

Take `Cc1n[nH]c2ccnc(Nc3cccc(F)c3)c12` [Example 65, (3-Fluoro-phenyl)-(3-methyl-1H-pyrazolo[4,3-c]pyridin-4-yl)-amine]: the IC50 lay within 100 to 1000 nM.

Regarding `Cc1n[nH]c2ccnc(NCc3ccc(F)cc3)c12` [Example 316, (4-Fluoro-benzyl)-(3-methyl-1H-pyrazolo[4,3-c]pyridin-4-yl)-amine], the IC50 is 1000 to 10000 nM.

On to `Cc1n[nH]c2ccnc(N[C@@H](C)C(C)C)c12` [Example 40, ((S)-1,2-Dimethyl-propyl)-(3-methyl-1H-pyrazolo[4,3-c]pyridin-4-yl)-amine], for which the IC50 was in the range of 100 to 1000 nM.

`O=C(CCc1n[nH]c2ccnc(NC3CCCCC3)c12)Nc1cccc(F)c1` [Example 187, 3-(4-Cyclohexylamino-1H-pyrazolo[4,3-c]pyridin-3-yl)-N-(3-fluoro-phenyl)-propionamide]: the IC50 lay in the range of 1000 to 10000 nM.

Regarding `Cc1n[nH]c2ccnc(Nc3ccc(C(=O)N(C)C4CCCCC4)cc3)c12` [Example 107, N-Cyclohexyl-N-methyl-4-(3-methyl-1H-pyrazolo [4,3-c]pyridin-4-ylamino)-benzamide], the IC50 lay within 1000 to 10000 nM.

In the case of `O=C(Nc1ccc2nccnc2c1)c1ccc(CCc2n[nH]c3ccnc(NC4CCCCC4)c23)cc1` [Example 254, 4-[2-(4-Cyclohexylamino-1H-pyrazolo[4,3-c]pyridin-3-yl)-ethyl]-N-quinoxalin-6-yl-benzamide], the IC50 is below 100 nM.

As to `Cc1n[nH]c2ccnc(Nc3cccc(O)c3)c12` [Example 77, 3-(3-Methyl-1H-pyrazolo[4,3-c]pyridin-4-ylamino)-phenol], the IC50 lay within 100 to 1000 nM.

Take `CS(=O)(=O)N1CCC(CCc2n[nH]c3ccnc(NC4CCCCC4)c23)CC1` [Example 220, Cyclohexyl-{3-[2-(1-methanesulfonyl-piperidin-4-yl)-ethyl]-1H-pyrazolo[4,3-c]pyridin-4-yl}-amine]: the IC50 is 100 to 1000 nM.

Take `CC1CCN(C(=O)CCc2n[nH]c3ccnc(NC4CCCCC4)c23)CC1` [Example 192, 3-(4-Cyclohexylamino-1H-pyrazolo[4,3-c]pyridin-3-yl)-1-(4-methyl-piperidin-1-yl)-propan-1-one]: the IC50 lay in the range of 100 to 1000 nM.

For `Cc1n[nH]c2ccnc(NC3CCS(=O)(=O)CC3)c12` [Example 46, (1,1-Dioxo-hexahydro-1λ^6-thiopyran-4-yl)-(3-methyl-1H-pyrazolo[4,3-c]pyridin-4-yl)-amine], the IC50 fell in the range of 100 to 1000 nM.

Take `Cc1n[nH]c2ccnc(NCc3cccc(F)c3)c12` [Example 317, (3-Fluoro-benzyl)-(3-methyl-1H-pyrazolo[4,3-c]pyridin-4-yl)-amine]: the IC50 was in the range of 1000 to 10000 nM.

Take `Cc1n[nH]c2ccnc(-c3ccoc3)c12` [Example 58, 4-Furan-3-yl-3-methyl-1H-pyrazolo[4,3-c]pyridine]: the IC50 was in the range of 1000 to 10000 nM.

Regarding `CN1CCN(C(=O)CCc2n[nH]c3ccnc(NC4CCCCC4)c23)CC1c1ccccc1` (stereo not drawn) [Example 245, 3-(4-Cyclohexylamino-1H-pyrazolo[4,3-c]pyridin-3-yl)-1-(4-methyl-3-phenyl-piperazin-1-yl)-propan-1-one], the IC50 lay within 100 to 1000 nM.

Take `Cc1n[nH]c2ccnc(O[C@@H]3CCOC3)c12` [Example 297, 3-Methyl-4-[(R)-(tetrahydro-furan-3-yl)oxy]-1H-pyrazolo[4,3-c]pyridine]: the IC50 was in the range of 100 to 1000 nM.

For `N#Cc1cccc(-c2n[nH]c3ccnc(NC4CCCCC4)c23)c1` [Example 150, 3-(4-Cyclohexylamino-1H-pyrazolo[4,3-c]pyridin-3-yl)-benzonitrile], the IC50 was 100 to 1000 nM.

As to `C[C@@H]1CCN(C(=O)CCc2n[nH]c3ccnc(NC4CCCCC4)c23)C1` [Example 246, 3-(4-Cyclohexylamino-1H-pyrazolo[4,3-c]pyridin-3-yl)-1-((R)-3-methyl-pyrrolidin-1-yl)-propan-1-one], the IC50 was below 100 nM.

Take `Cc1n[nH]c2ccnc(Nc3ccc(C(=O)N4CCC(F)(F)CC4)cc3)c12` [Example 110, (4,4-Difluoro-piperidin-1-yl)-[4-(3-methyl-1H-pyrazolo[4,3-c]pyridin-4-ylamino)-phenyl]-methanone]: the IC50 lay in the range of 100 to 1000 nM.

With `O=C(CCc1n[nH]c2ccnc(NC3CCCCC3)c12)N1CCC(C(F)(F)F)CC1` [Example 203, 3-(4-Cyclohexylamino-1H-pyrazolo[4,3-c]pyridin-3-yl)-1-(4-trifluoromethyl-piperidin-1-yl)-propan-1-one], the IC50 lay within 100 to 1000 nM.

In the case of `Cc1n[nH]c2ccnc(OC3CCCC3)c12` [Example 115, 4-Cyclopentyloxy-3-methyl-1H-pyrazolo[4,3-c] pyridine], the IC50 was below 100 nM.

On to `Cc1n[nH]c2ccnc(N[C@@H](C)c3ccccc3)c12` [Example 29, (3-Methyl-1H-pyrazolo[4,3-c]pyridin-4-yl)-((S)-1-phenyl-ethyl)-amine], for which the IC50 was 1000 to 10000 nM.

As to `c1cc2[nH]nc(-c3ccoc3)c2c(NC2CCCCC2)n1` [Example 147], the IC50 fell in the range of 100 to 1000 nM.

Regarding `Cc1n[nH]c2ccnc(-c3cnn(C)c3)c12` [Example 47, 3-Methyl-4-(1-methyl-1H-pyrazol-4-yl)-1H-pyrazolo[4,3-c]pyridine], the IC50 lay within 1000 to 10000 nM.

`O=C(CCc1n[nH]c2ccnc(NC3CCCCC3)c12)Nc1cccnc1` [Example 188, 3-(4-Cyclohexylamino-1H-pyrazolo[4,3-c]pyridin-3-yl)-N-pyridin-3-yl-propionamide]: the IC50 fell in the range of 1000 to 10000 nM.

Consider `C[C@@H]1CCCN(C(=O)CCc2n[nH]c3ccnc(NC4CCCCC4)c23)C1` [Example 243, 3-(4-Cyclohexylamino-1H-pyrazolo[4,3-c]pyridin-3-yl)-1-((R)-3-methyl-piperidin-1-yl)-propan-1-one], for which the IC50 is below 100 nM.

Consider `Cc1n[nH]c2ccnc(Nc3ccc(N4CCOCC4)nc3)c12` [Example 63, (3-Methyl-1H-pyrazolo[4,3-c]pyridin-4-yl)-(6-morpholin-4-yl-pyridin-3-yl)-amine], for which the IC50 is 100 to 1000 nM.

As to `Cc1n[nH]c2ccnc(N[C@H]3CC[C@H](O)CC3)c12` [Example 26, Trans-4-(3-Methyl-1H-pyrazolo[4,3-c]pyridin-4-ylamino)-cyclohexanol], the IC50 was 100 to 1000 nM.

On to `Cc1n[nH]c2ccnc(N[C@H](C)c3ccccc3)c12` [Example 19, (3-Methyl-1H-pyrazolo[4,3-c]pyridin-4-yl)-((R)-1-phenyl-ethyl)-amine], for which the IC50 was 1000 to 10000 nM.

`Clc1ccccc1-c1n[nH]c2ccnc(NC3CCCCC3)c12` [Example 143, [3-(2-Chloro-phenyl)-1H-pyrazolo[4,3-c]pyridin-4-yl]-cyclohexyl-amine]: the IC50 lay within 100 to 1000 nM.

For `O=C(CCc1n[nH]c2ccnc(NC3CCCCC3)c12)N1CCN(c2cccc(Cl)c2)CC1` [Example 180, 1-[4-(3-Chloro-phenyl)-piperazin-1-yl]-3-(4-cyclohexylamino-1H-pyrazolo[4,3-c]pyridin-3-yl)-propan-1-one], the IC50 lay within 100 to 1000 nM.

As for `CNC(=O)CCc1n[nH]c2ccnc(NC3CCCCC3)c12` [Example 210, 3-(4-Cyclohexylamino-1H-pyrazolo[4,3-c]pyridin-3-yl)-N-methyl-propionamide], the IC50 is 1000 to 10000 nM.

Regarding `Cc1n[nH]c2ccnc(C3CCCC3)c12` [Example 127, 4-Cyclopentyl-3-methyl-1H-pyrazolo[4,3-c]pyridine], the IC50 was in the range of 100 to 1000 nM.

Consider `COCCNC(=O)CCc1n[nH]c2ccnc(NC3CCCCC3)c12` [Example 211, 3-(4-Cyclohexylamino-1H-pyrazolo[4,3-c]pyridin-3-yl)-N-(2-methoxy-ethyl)-propionamide], for which the IC50 was 1000 to 10000 nM.

`Cc1n[nH]c2ccnc(N[C@H](C)C3CC3)c12` [Example 43, ((R)-1-Cyclopropyl-ethyl)-(3-methyl-1H-pyrazolo[4,3-c]pyridin-4-yl)-amine]: the IC50 was 1000 to 10000 nM.

On to `Cc1n[nH]c2ccnc(O[C@H](C)Cc3ccccc3)c12` [Example 299, 3-Methyl-4-((R)-1-methyl-2-phenyl-ethoxy)-1H-pyrazolo[4,3-c]pyridine], for which the IC50 was below 100 nM.

For the molecule `Cc1n[nH]c2ccnc(OCCC(F)(F)F)c12` [Example 295, 3-Methyl-4-(3,3,3-trifluoro-propoxy)-1H-pyrazolo[4,3-c]pyridine], the IC50 fell in the range of 100 to 1000 nM.

A word on the IC50: it is the concentration that gives 50% inhibition.
